The text below walks through data of patent publication US20240239790A1, “7-Morpholino-1,6-Naphthyridin-5-yl Derivatives and Pharmaceutical Compositions Thereof Useful as DNA-PK Inhibitor” (adMare Therapeutics Society, priority 2021, published 2024).

Read-outs that look alike come from different tables or passages of the source.

For orientation: EC50 means the concentration that produces a half-maximal response. Broadly, the IC50 is the concentration needed to halve the response being measured.

Series [1] deals with pH2AX induction in HCT116 ATM-/- multicellular tumour spheroids. The series can be described thus: Prodrug Radiation Sensitization in Multicellular Tumour Spheroids, inhibition of pH2AX induction following radiation. The following applies: Homo sapiens, HCT-116, 20 Gy. In kind it is cell-based. How it is done:
Prodrug compounds were assayed to determine their potency in 3D multicellular spheroids in media maintained under 20% vs 5% oxygen. Multicellular tumour spheroids were grown to approximately 0.5 mm in diameter and irradiated with 20 Gy in combination with inhibitor test compounds to determine their potency using HCT 116 and FaDu cell lines. Experiments were carried out in 96 well plates containing 0.7 mls of MEM media containing 10% FBS and 10 mM glucose under 5% CO2 at 37° C. Following dilution of compounds 1:1000 from DMSO stocks, compounds were serially diluted from 10 μM down to 3.5 nM and 5-10 spheroids added. 96 well plates were constantly stirred to avoid spheroids settling during the course of the experiment. Endpoints were pDNA-PK (ser 2056) or pH2AX (ser 139) status in spheroid cryosections taken 1 or 2 hours following radiation and fixed immediately in formalin. Using tumour cell lines deficient in ATM improved the assay signal to noise and gH2AX readout. Using this assay prodrug activity could be compared in the more oxygenated outer spheroid layers versus less oxygenated hypoxic central cell layers.

Series [2] deals with T1, DNA-PK phosphorylation at Serine 2056 (Homo sapiens, UniProt P78527).
T1 construct: FaDu cells were purchased from ATCC; host or cells: FaDu
The series can be described thus: Cellular Assay for Inhibition of DNA-PK Phosphorylation at Serine 2056 in FaDu cells (sandwich ELISA, neocarzinostatin). In kind it is cell-based. Particulars: pSer2056 DNA-PK, Table 3. How it is done:
FaDu cells were purchased from ATCC and maintained in MEM alpha medium (Life Technologies, cat. no. 12561) supplemented with 10% fetal bovine serum, and 1% GlutaMAX at 37° C. supplemented with 5% CO2. 50,000 cells were seeded to each well of a 96-well cell culture plate in 50 μL of culture medium and incubated for 16-24 hours. Three-fold serially diluted compounds were prepared in DMSO. Culture media was used to prepare compound treatments to 0.3% DMSO (dimethyl sulphoxide) content. Compound treatments were added to the cells for 1 hour prior incubation, followed by the addition of neocarzinostatin in fresh culture medium to 1 μg/mL final concentration for an additional 2 hours incubation to induce DNA DSBs (double-strand breaks). DMSO controls were incubated with fresh culture medium alone for the additional two hours incubation. The cells were then lysed and frozen at −20° C. Cell lysates were thawed on wet ice and protein concentrations quantified by BCA Protein Assay (Thermo #23225). Lysis buffer was used to normalize lysates by protein content and all lysates were then investigated by sandwich ELISA by means of DNA-PK-specific antibodies (Abcam ab44815: total DNA-PK; ab124918: phosphoserine-2056 DNA-PK) in sandwich ELISA format on the MSD S600MM platform (MesoScale Discovery). % inhibition was calculated for all data points: =1−(DATA_PT−AVERAGE(DMSO controls))/(AVERAGE(NCS controls)−AVERAGE(DMSO controls)). Logarithm of the molar concentration of compound was plotted against percent inhibition to calculate IC50 values, with curve fit settings for data fit to log(inhibitor) vs. normalized response—Variable slope using curve fit software (GraphPad Prism).

Series [3] concerns FaDu cell line. The series can be described thus: Prodrug Activation in Hypoxic Stirred Tumour Cell Suspensions. Particulars: 10 μM, 4 hours.
Where [4] appears, read: 5% O2, inner layers, read-out: Prodrug 5% O2 Inner layers EC50.
Setting [5] is: 5% O2, outer layers, read-out: Prodrug 5% O2 Outer layers EC50.
The mark [6] stands for this setting: 20% O2, outer layers, read-out: Prodrug 20% O2 Outer layers EC50.

As for `COc1cccnc1N[C@H]1CC[C@@H](Oc2nc(N3CCOCC3)cc3ncc(N(Cc4cnc([N+](=O)[O-])n4C)S(C)(=O)=O)cc23)CC1` [LFA2009, N-[5-[4-[(3-methoxy-2-pyridyl)amino]cyclohexoxy]-7-morpholino-1,6-naphthyridin-3-yl]-N-[(3-methyl-2-nitro-imidazol-4-yl)methyl]methanesulfonamide], the 50% effective concentration (EC50) in series [1] (setting [4]), in series [1] (setting [5]) and in series [1] (setting [6]) was 1000 to 10000 nM throughout. In series [2], this molecule displayed an IC50 of 10000 to 30000 nM. In addition, the “Fraction of prodrug converted to active form, Hypoxic 0.2% O2” value (shortened to “Fraction … Hypoxic 0.2% O2”) in series [3] is “B (B is 0.05 to 0.15)”. Moreover, the “Fraction of prodrug converted to active form, Oxic 5% O2” value (from here on “Fraction … Oxic 5% O2”) in series [3] was “C (C is 0.02 to 0.05)”.
Turning to `Cn1c(CN(c2cnc3cc(N4CCOCC4)nc(O[C@H]4CC[C@@H](Nc5ccc(F)cn5)CC4)c3c2)S(C)(=O)=O)cnc1[N+](=O)[O-]` [LFA2010, N-[5-[4-[(5-fluoro-2-pyridyl)amino]cyclohexoxy]-7-morpholino-1,6-naphthyridin-3-yl]-N-[(3-methyl-2-nitro-imidazol-4-yl)methyl]methanesulfonamide], the EC50 in series [1] (setting [4]) lay in the range of 10 to 500 nM; in series [1] (setting [5]), 500 to 1000 nM; in series [1] (setting [6]) it was 1000 to 10000 nM. The molecule further had an IC50 in series [2] of 100 to 1000 nM. Moreover, the “Fraction … Hypoxic 0.2% O2” value in series [3] is “B (B is 0.05 to 0.15)”. Also, the “Fraction … Oxic 5% O2” value in series [3] was “C (C is 0.02 to 0.05)”.
With `Cc1nc(N[C@H]2CC[C@@H](Oc3nc(N4CCOCC4)cc4ncc(N(Cc5cnc([N+](=O)[O-])n5C)S(C)(=O)=O)cc34)CC2)ccc1F` [LFA2011, N-[5-[4-[(5-fluoro-6-methyl-2-pyridyl)amino]cyclohexoxy]-7-morpholino-1,6-naphthyridin-3-yl]-N-[(3-methyl-2-nitro-imidazol-4-yl)methyl]methanesulfonamide], the EC50 in series [1] (setting [4]), in series [1] (setting [5]) and in series [1] (setting [6]) was 1000 to 10000 nM each time. Further, the IC50 in series [2] lay within 10000 to 30000 nM. Moreover, the “Fraction … Hypoxic 0.2% O2” value in series [3] is reported as “C (C is 0.02 to 0.05)”. The “Fraction … Oxic 5% O2” value in series [3] is reported as “D (D is 0 to 0.02)”.
As to `CC(Oc1cnc2cc(N3CCOCC3)nc(O[C@H]3CC[C@@H](c4cnccn4)CC3)c2c1)c1cnc([N+](=O)[O-])n1C` (stereo partly drawn) [LFA2041, 4-[3-[1-(3-methyl-2-nitro-imidazol-4-yl)ethoxy]-5-(4-pyrazin-2-ylcyclohexoxy)-1,6-naphthyridin-7-yl]morpholine], the EC50 in series [1] (setting [4]) is 10 to 500 nM; in series [1] (setting [5]), 1000 to 10000 nM; in series [1] (setting [6]), 1000 to 10000 nM. Further, the IC50 in series [2] was 10000 to 30000 nM. Besides, the “Fraction … Hypoxic 0.2% O2” value in series [3] is listed as “A (A is 0.15 to 1)”. Besides, the “Fraction … Oxic 5% O2” value in series [3] is given as “B (B is 0.05 to 0.15)”.
As for `Cn1c(COc2cnc3cc(N4CCOCC4)nc(O[C@H]4CC[C@@H](c5cnccn5)CC4)c3c2)cnc1[N+](=O)[O-]` [LFA2042, 4-[3-[(3-methyl-2-nitro-imidazol-4-yl)methoxy]-5-(4-pyrazin-2-ylcyclohexoxy)-1,6-naphthyridin-7-yl]morpholine], the results for the EC50 in series [1] (setting [4]), in series [1] (setting [5]) and in series [1] (setting [6]) were 10 to 500 nM, 1000 to 10000 nM and 1000 to 10000 nM, respectively. In series [2], the 50% inhibitory concentration (IC50) lay within 10000 to 30000 nM. The “Fraction … Hypoxic 0.2% O2” value in series [3] is “A (A is 0.15 to 1)”. In addition, in series [3], the “Fraction … Oxic 5% O2” value is recorded as “C (C is 0.02 to 0.05)”.
With `CC(c1cnc([N+](=O)[O-])n1C)N(c1cnc2cc(N3CCOCC3)nc(OC3CCC(c4cnccn4)CC3)c2c1)S(C)(=O)=O` (stereo not drawn) [LFA2043, N-[1-(3-methyl-2-nitro-imidazol-4-yl)ethyl]-N-[7-morpholino-5-(4-pyrazin-2-ylcyclohexoxy)-1,6-naphthyridin-3-yl]methanesulfonamide], the concentration for a half-maximal effect (EC50) lay within 10 to 500 nM in series [1] (setting [4]), 500 to 1000 nM in series [1] (setting [5]) and 1000 to 10000 nM in series [1] (setting [6]). The molecule further displayed an IC50 in series [2] of 1000 to 10000 nM. Besides, the “Fraction … Hypoxic 0.2% O2” value in series [3] was “B (B is 0.05 to 0.15)”. Moreover, the “Fraction … Oxic 5% O2” value in series [3] was “D (D is 0 to 0.02)”.
As for `Cn1c(CN(c2cnc3cc(N4CCOCC4)nc(OC4CCC(Nc5ncc(N6CCN(CCF)CC6)cn5)CC4)c3c2)S(C)(=O)=O)cnc1[N+](=O)[O-]` (stereo not drawn) [LFA2044, N-[5-[4-[[5-[4-(2-fluoroethyl)piperazin-1-yl]pyrimidin-2-yl]amino]cyclohexoxy]-7-morpholino-1,6-naphthyridin-3-yl]-N-[(3-methyl-2-nitro-imidazol-4-yl)methyl]methanesulfonamide], the EC50 in series [1] (setting [4]) was 10 to 500 nM; in series [1] (setting [5]), 1000 to 10000 nM; in series [1] (setting [6]), 1000 to 10000 nM. This molecule yielded an IC50 in series [2] of 1000 to 10000 nM. In series [3], the “Fraction … Hypoxic 0.2% O2” value is given as “C (C is 0.02 to 0.05)”. The “Fraction … Oxic 5% O2” value in series [3] is on record as “D (D is 0 to 0.02)”.
For `Cn1c(CN(c2cnc3cc(N4CCOCC4)nc(OC4CCC(Nc5ncc(N6CCN(CC(F)(F)F)CC6)cn5)CC4)c3c2)S(C)(=O)=O)cnc1[N+](=O)[O-]` (stereo not drawn) [LFA2045, N-[(3-methyl-2-nitro-imidazol-4-yl)methyl]-N-[7-morpholino-5-[4-[[5-[4-(2,2,2-trifluoroethyl)piperazin-1-yl]pyrimidin-2-yl]amino]cyclohexoxy]-1,6-naphthyridin-3-yl]methanesulfonamide], the EC50 in series [1] (setting [4]), in series [1] (setting [5]) and in series [1] (setting [6]) was 1000 to 10000 nM each time. The molecule also gave an IC50 in series [2] of 10000 to 30000 nM. For the same molecule, in series [3], the “Fraction … Hypoxic 0.2% O2” value is listed as “D (D is 0 to 0.02)”. Besides, in series [3], the “Fraction … Oxic 5% O2” value was “D (D is 0 to 0.02)”.
With `CC(c1cnc([N+](=O)[O-])n1C)N(c1cnc2cc(N3CCOCC3)nc(OC3CCC(Nc4ncc(N5CCN(CC(F)(F)F)CC5)cn4)CC3)c2c1)S(C)(=O)=O` (stereo not drawn) [LFA2046, N-[1-(3-methyl-2-nitro-imidazol-4-yl)ethyl]-N-[7-morpholino-5-[4-[[5-[4-(2,2,2-trifluoroethyl)piperazin-1-yl]pyrimidin-2-yl]amino]cyclohexoxy]-1,6-naphthyridin-3-yl]methanesulfonamide], the EC50 in series [1] (setting [4]) is 500 to 1000 nM; in series [1] (setting [5]), 1000 to 10000 nM; in series [1] (setting [6]), 1000 to 10000 nM. In addition, the IC50 in series [2] lay in the range of 10000 to 30000 nM. For the same molecule, in series [3], the “Fraction … Hypoxic 0.2% O2” value was “D (D is 0 to 0.02)”. Further, the “Fraction … Oxic 5% O2” value in series [3] is recorded as “D (D is 0 to 0.02)”.
`CC(c1cnc([N+](=O)[O-])n1C)N(c1cnc2cc(N3CCOCC3)nc(OC3CCC(Nc4ncc(N5CCN(CC(F)F)CC5)cn4)CC3)c2c1)S(C)(=O)=O` (stereo not drawn) [LFA2047, N-[5-[4-[[5-[4-(2,2-difluoroethyl)piperazin-1-yl]pyrimidin-2-yl]amino]cyclohexoxy]-7-morpholino-1,6-naphthyridin-3-yl]-N-[1-(3-methyl-2-nitro-imidazol-4-yl)ethyl]methanesulfonamide]: the concentration giving a half-maximal response (EC50) was 10 to 500 nM in series [1] (setting [4]), 1000 to 10000 nM in series [1] (setting [5]) and 1000 to 10000 nM in series [1] (setting [6]). Moreover, the IC50 in series [2] was in the range of 10000 to 30000 nM. For the same molecule, the “Fraction … Hypoxic 0.2% O2” value in series [3] is recorded as “B (B is 0.05 to 0.15)”. Moreover, in series [3], the “Fraction … Oxic 5% O2” value is listed as “D (D is 0 to 0.02)”.
For `Cn1c(CN(c2cnc3cc(N4CCOCC4)nc(OC4CCC(Nc5ncc(N6CCN(CC(F)F)CC6)cn5)CC4)c3c2)S(C)(=O)=O)cnc1[N+](=O)[O-]` (stereo not drawn) [LFA2048, N-[5-[4-[[5-[4-(2,2-difluoroethyl)piperazin-1-yl]pyrimidin-2-yl]amino]cyclohexoxy]-7-morpholino-1,6-naphthyridin-3-yl]-N-[(3-methyl-2-nitro-imidazol-4-yl)methyl]methanesulfonamide], the EC50 in series [1] (setting [4]) lay in the range of 500 to 1000 nM; in series [1] (setting [5]), 1000 to 10000 nM; in series [1] (setting [6]) it was 500 to 1000 nM. The IC50 in series [2] was 10000 to 30000 nM. In addition, in series [3], the “Fraction … Hypoxic 0.2% O2” value is “B (B is 0.05 to 0.15)”. The “Fraction … Oxic 5% O2” value in series [3] is “D (D is 0 to 0.02)”.
